The text below walks through data of patent publication US5935977A, “Substituted vinyl pyridine derivative and drugs containing the same” (SS Pharmaceutical Co., Ltd., priority 1996, dated 1999).

For one data set, the target named is T1, PDE V (Homo sapiens, UniProt O76074).
T1 construct: isolated from human tissue and purified in accordance with the method described in literature; from tissue; host or cells: human platelets
In words: PDE Inhibitory Activity Test, PDE V. It is filed as biochemical. As to conditions: human platelet PDE V; substrate 1 μM; 20 min at 30° C. The method, then: A variety of PDE isozymes shown below were isolated from human tissue and purified in accordance with the method described in literature.
H. Hidaka, et al., Bioph. Bioch. Acta, (1976), 429, p485
C. D. Nicholson, et al., Trends Pharmacol. Sci., (1991), 12, p19.
The PDE activity was determined through use of a modified two-step assay method described by Hidaka et al. (Bioph. Bioch. Acta., (1976), 429, p485),
Briefly, [^3 H]cAMP and [^3 H]cGMP are hydrolyzed by their respective PDE isozymes to form [^3 H]5'-AMP and [^3 H]5'-GMP, respectively. Subsequently, [^3 H]5^1 -AMP and [^3 H]5^1 -GMP are transformed into [^3 H]adenosine and [^3 H]guanosine, respectively, due to the action of nucleotidases. Unreacted [^3 H]cAMP and [^3 H]cGMP are removed, causing them to bond to ion exchange resin, and the quantity of eluted [^3 H]adenosine or [^3 H]guanosine was counted in a liquid scintillation counter.
The diluted enzyme solution contains 50 mM Tris-HCl (pH 8.0), 5 mM MgCl2, and 50 μg of bovine serum albumin, wherein the concentrations represent final concentrations. The substrate concentration is 1 μM. The concentration of each test compound varies between 0.1 nM and 100 μM. Each test sample is incubated for 20 minutes at 30° C., and the PDE reaction is terminated by boiling for 2 minutes. The nucleotidase reaction was induced by adding snake venom nucleotidase to the above-described reaction mixture and incubating the resultant mixture for 20 minutes at 30° C.

Another data set concerns TNF-α. In words: TNF-α Production Inhibition Test in LPS-treated U 937 cells. It is filed as cell-based. Conditions: U 937 cells differentiated with PMA; LPS 10 ng/ml, 6 hours; human TNF-α ELISA. As to the method:
Human promonocytic leukemia cells (U 937 cells, 1×10^5 cells/400 μl) were inoculated on a 24-well culture plate. By use of an RPMI 1640 culture liquid (supplemented with 10% FCS) containing 50 nM PMA, the cells were incubated for 72 hours, to thereby induce differentiation into monocyte/macrophage (see Sarkiz Daniel-Issakani, Allem M. Spiegel and Berta Strulovici (1989), J. Biol. Chem. 264, p20240-20247). Subsequently, the culture supernatant was discarded, and an RPMI 1640 culture liquid (supplemented with 10% FCS) containing 10 ng/ml of LPS (lipopolysaccharide; E. coli, 0111:B4) was added. Each compound was added one hour before the LPS treatment, so as to achieve concentrations of 100 μM, 10 μM, 1 μM, and 0.1 μM. Six hours after addition of LPS, the quantity of produced TNF-α in the supernatant was measured by use of a human TNF-α ELISA kit (Amersham, code RPN 2758), For respective doses of each compound, % control was calculated, wherein the quantity of TNF-α produced when LPS treatment was performed and the compound was not added was considered 100%. Further, based on primary regression curves, there were calculated IC50 values in terms of TNF-α production inhibitory activity for respective compounds.
Background: An ELISA detects its analyte on a solid surface through an enzyme-linked reagent.

The test system of a further data set is PDE III. The data set can be described thus: PDE Inhibitory Activity Test, PDE III. It counts as biochemical. As to conditions: human platelet PDE III; substrate 1 μM; 20 min at 30° C.
For data set [1], the system named is PDE IV. In words: PDE Inhibitory Activity Test, PDE IV. It is filed as biochemical. Conditions: PDE IV from human histocytic lymphoma (U-937); substrate 1 μM; 20 min at 30° C.
The conditions of data set [2]: in vivo; cited from earlier work.
The next data set concerns PDE. As to conditions: cited from earlier work.
The subject of data set [3] is PDE IV. Conditions: PDE IV vs other PDE isozymes; cited from earlier work.

Take `CCCCOc1cc(/C(C#N)=C/c2c(Cl)cncc2Cl)ncc1OC` [Example 16, (Z)-2-(4-Butyloxy-5-methoxy-2-pyridyl)-3-(3,5-dichloro-4-pyridyl)propenenitrile]: the IC50 (as a rule, the midpoint of a concentration-inhibition curve) was found to be 31 µM at PDE V, 13.1 µM in the data set on TNF-α, 15 µM with PDE III and 0.015 µM in the data set on PDE IV [1].
In turn, `COc1cnc(/C(C#N)=C/c2c(OC)cncc2OC)cc1OC1CCCC1` [Example 11, (Z)-2-(4-Cyclopentyloxy-5-methoxy-2-pyridyl)-3-(3,5-dimethoxy-4-pyridyl)propenenitrile] yielded an IC50 with TNF-α of 5.5 µM.
With `COc1cnc(/C(C#N)=C/c2c(Cl)cncc2Cl)cc1O[C@@H]1C[C@H]2CC[C@@H]1C2` (relative stereo) [Example 21, (Z)-3-(3,5-Dichloro-4-pyridyl)-2-[5-methoxy-4-(exo-2-norbornyloxy)-2-pyridyl]propenenitrile], inhibition in the data set on TNF-α was half-maximal at 13.3 µM (IC50).
Still for that read-out and setting: the same measure for `COc1cnc(/C(C#N)=C/c2ccncc2)cc1OC1CCCC1` [Example 4, (Z)-2-(4-Cyclopentyloxy-5-methoxy-2-pyridyl)-3-(4-pyridyl)propenenitrile]: 7.6 µM.
Same read-out and setting: in the case of `COc1cnc(/C(C#N)=C/c2ccnc3ccccc23)cc1OC1CCCC1` [Example 10, (Z)-2-(4-Cyclopentyloxy-5-methoxy-2-pyridyl)-3-(4-quinolyl)propenenitrile] it was 10 µM.
Regarding `Cn1c(=O)c2[nH]cnc2n(C)c1=O` [theophylline], the “safety range” value in data set [2] was “rather narrow”. Besides, in the data set on PDE, the “PDE inhibition selectivity” value is “inhibits PDE non-selectively”.
In the case of `COc1cnc(/C(C#N)=C/c2c(Cl)cncc2Cl)cc1OC1CCCC1` [Example 1, (Z)-2-(4-cyclopentyloxy-5-methoxy-2-pyridyl)-3-(3,5-dichloro-4-pyridyl)propenenitrile], the IC50 against PDE V was greater than 100 µM; in the data set on TNF-α, 10.2 µM; with PDE III, 10 µM; with PDE IV [1] it was 0.0026 µM.
In the case of `COc1cnc(/C(C#N)=C/c2c(Cl)cncc2Cl)cc1OCCc1ccccc1` [Example 14, (Z)-3-(3,5-Dichloro-4-pyridyl)-2-(5-methoxy-4-phenethyloxy-2-pyridyl)propenenitrile], the half-inhibitory concentration (IC50) was 5.6 µM at PDE V, greater than 100 µM in the data set on PDE III and 0.0059 µM in the data set on PDE IV [1].
With `CCOc1cnc(/C(C#N)=C/c2c(Cl)cncc2Cl)cc1OC1CCCC1` [Example 18, (Z)-2-(4-Cyclopentyloxy-5-ethoxy-2-pyridyl)-3-(3,5-dichloro-4-pyridyl)propenenitrile], the IC50 on PDE V amounted to 12 µM; with PDE III, 18 µM; in the data set with PDE IV [1], 0.036 µM.
The like results for `COc1cnc(/C(C#N)=C/c2c(Cl)cncc2Cl)cc1OCCCc1ccccc1` [Example 15, (Z)-3-(3,5-Dichloro-4-pyridyl)-2-[5-methoxy-4-(3-phenylpropyloxy)-2-pyridyl]propenenitrile] were, in that order, 56 µM, 91 µM and 0.0048 µM.
As for `CCC(CC)Oc1cc(/C(C#N)=C/c2c(Cl)cncc2Cl)ncc1OC` [Example 17, (Z)-3-(3,5-Dichloro-4-pyridyl)-2-[4-(1-ethylpropyloxy)-5-methoxy-2-pyridyl]propenenitrile], the IC50 against PDE V is greater than 100 µM; with PDE III it was greater than 100 µM; with PDE IV [1], 0.036 µM.
Turning to `COc1ccc(C2CNC(=O)C2)cc1OC1CCCC1` (centres unmarked) [Rolipram, reference compound], the 50% inhibitory concentration (IC50) is 100 µM in the data set on TNF-α, greater than 100 µM in the data set with PDE III and 5 µM in the data set on PDE IV [1].
Consider `CCCCOc1cc(CC2CNC(=O)N2)ccc1OC` (racemic) [Ro20-1724], for which, in the data set with PDE IV [3], the “potency at PDE IV relative to other PDE isozymes” value is 100 times.
Regarding `COc1cnc(/C(C#N)=C/c2c(Cl)cncc2Cl)cc1OC1Cc2ccccc2C1` [Example 19, (Z)-3-(3,5-Dichloro-4-pyridyl)-2-[4-(2-indanyloxy)-5-methoxy-2-pyridyl]propenenitrile], the IC50 on PDE V is greater than 100 µM; with TNF-α, 2.9 µM; in the data set with PDE III, greater than 100 µM; in the data set on PDE IV [1] it was 0.00065 µM.
Take `COc1cnc(/C(C#N)=C/c2c(Cl)cncc2Cl)cc1OC1CCOC1` (centres unmarked) [Example 20, (Z)-3-(3,5-Dichloro-4-pyridyl)-2-[5-methoxy-4-(tetrahydro-3-furanyloxy)-2-pyridyl]propenenitrile]: the IC50 against PDE V was greater than 100 µM; in the data set with TNF-α, 7.1 µM; with PDE III, 56 µM; in the data set with PDE IV [1], 0.011 µM.
